Test results from patent publication US6596719B1 (Actelio Pharmaceuticals Ltd., priority 1999, dated 2003).
Read-outs that look alike come from different tables or passages of the source.

Legend:
[1] = molecular target: T1, human recombinant ETA receptors (Homo sapiens, UniProt P25101); test: Inhibition of endothelin binding to membranes from CHO cells carrying human ET receptors (ETA)
T1 construct: expressed in transfected cells; host or cells: CHO cells (microsomal membranes)
T1 sequence (P25101 21-427): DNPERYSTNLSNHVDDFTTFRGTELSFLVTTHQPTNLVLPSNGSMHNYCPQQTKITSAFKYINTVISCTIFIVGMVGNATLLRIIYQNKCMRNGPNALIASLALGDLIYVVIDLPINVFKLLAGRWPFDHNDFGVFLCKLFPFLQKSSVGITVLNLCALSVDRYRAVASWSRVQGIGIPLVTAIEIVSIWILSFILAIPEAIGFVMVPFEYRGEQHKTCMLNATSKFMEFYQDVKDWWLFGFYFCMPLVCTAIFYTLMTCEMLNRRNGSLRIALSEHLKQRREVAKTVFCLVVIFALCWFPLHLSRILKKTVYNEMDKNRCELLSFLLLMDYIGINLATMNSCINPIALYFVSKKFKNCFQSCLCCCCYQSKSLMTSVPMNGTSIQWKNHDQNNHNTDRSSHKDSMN

[2] = molecular target: T2, human recombinant ETB receptors (Homo sapiens, UniProt P24530); test: Inhibition of endothelin binding to membranes from CHO cells carrying human ET receptors (ETB)
T2 construct: expressed in transfected cells; host or cells: CHO cells (microsomal membranes)
T2 sequence (P24530 27-442): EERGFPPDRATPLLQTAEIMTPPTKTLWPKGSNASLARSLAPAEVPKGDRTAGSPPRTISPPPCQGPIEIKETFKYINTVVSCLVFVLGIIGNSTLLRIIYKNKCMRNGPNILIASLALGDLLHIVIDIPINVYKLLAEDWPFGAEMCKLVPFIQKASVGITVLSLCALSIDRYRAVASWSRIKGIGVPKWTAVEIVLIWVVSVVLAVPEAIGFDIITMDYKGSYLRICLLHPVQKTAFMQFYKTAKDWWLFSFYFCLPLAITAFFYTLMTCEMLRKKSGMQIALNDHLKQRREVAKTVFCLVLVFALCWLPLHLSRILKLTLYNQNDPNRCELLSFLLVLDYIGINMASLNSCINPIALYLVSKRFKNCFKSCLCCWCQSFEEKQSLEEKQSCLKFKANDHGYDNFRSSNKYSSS
Experimental: 1) Inhibition of Endothelin Binding to Membranes from CHO Cells Carrying Human ET Receptors:
For competition binding studies, membranes of CHO cells expressing human recombinant ETA or ETB receptors were used. Microsomal membranes from recombinant CHO cells were prepared and the binding assay made as previously described (Breu V., et al, FEBS Lett 1993; 334:210).
The assay was performed in 200 uL 50 mM Tris/HCl buffer, pH 7.4, including 25 mM MnCl2, 1 mM EDTA and 0.5% (w/v) BSA in polypropylene microtiter plates. […]. […] After two h, the membranes were filtered on, filterplates containing GF/C filters (Unifilterplates from Canberra Packard S. A. Zürich, Switzerland). To each well, 50 uL of scintillation cocktail was added (MicroScint 20, Canberra Packard S. A. Zürich, Switzerland) and the filter plates counted in a microplate counter (TopCount, Canberra Packard S. A. Zürich, Switzerland).
All the test compounds were dissolved, diluted and added in DMSO. […] […].

[3] = membranes of CHO cells expressing human recombinant ETA receptors, 8 pM [125I]ET-1, 2 h at 20° C.
[4] = membranes of CHO cells expressing human recombinant ETB receptors, 8 pM [125I]ET-1, 2 h at 20° C.

| SMILES | IC50 [1] [µM] | IC50 [2] [µM] | IC50 [1, 3] [µM] | IC50 [2, 4] [µM] |
| --- | --- | --- | --- | --- |
| COc1ccccc1Oc1c(NS(=O)(=O)c2ccc(C(C)C)cn2)nc(-c2cc(OC)c(OC)c(OC)c2)nc1OCCNS(=O)(=O)C(C)C [Example 18] | 0.209 | 1.05 |  |  |
| CCS(=O)(=O)NCCOc1nc(SC)nc(NS(=O)(=O)c2ccc(C(C)(C)C)cc2)c1Oc1ccccc1OC [Example 36f, 4-tert.-butyl-N-[6-(2-ethanesulfonylamino-ethoxy)-5-(o-methoxyphenoxy)-2-methylsulfanyl-pyrimidin-4-yl]-benzenesulfonamide] | 0.478 | 1.21 |  |  |
| COc1ccccc1Oc1c(NS(=O)(=O)c2ccc(C(C)C)cn2)nc(C2CC2)nc1OCCCNS(=O)(=O)c1cccs1 [Example 93, 5-i.-propyl-N-[6-(3-(2-thiophenesulfonylamino)-propoxy)-5-(o-methoxyphenoxy)-2-cyclopropyl-4-pyrimidinyl]-pyridine-2-sulfonamide] |  | 0.00386 | 0.0222 |  |
| CCS(=O)(=O)NCCOc1nc(S(C)(=O)=O)nc(NS(=O)(=O)c2ccc(C(C)(C)C)cc2)c1Oc1ccccc1OC [Example 36g] | 0.121 | 0.093 |  |  |
| CCS(=O)(=O)NCCOc1nc(C2CC2)nc(NS(=O)(=O)c2ccc(C(C)(C)C)cc2)c1Oc1ccccc1OC [Example 44, 4-tert.-butyl-N-[6-(2-ethanesulfonylamino-ethoxy)-5-(o-methoxyphenoxy)-2-cyclopropyl-pyrimidin-4-yl]-benzene-sulfonamide] |  |  | 0.119 | 0.323 |
| CCCS(=O)(=O)NCCCOc1nc(C2CC2)nc(NS(=O)(=O)c2ccc(C(C)C)cn2)c1Oc1ccccc1OC [Example 92, 5-i.-propyl-N-[6-(3-(propanesulfonylamino)-propoxy)-5-(o-methoxyphenoxy)-2-cyclopropyl-4-pyrimidinyl]-pyridine-2-sulfonamide] |  |  | 0.0821 | 0.015 |

Further lines, results first:

| IC50 [1] [µM] | IC50 [2] [µM] | IC50 [1, 3] [µM] | IC50 [2, 4] [µM] | SMILES |
| --- | --- | --- | --- | --- |
| 0.409 | 0.735 |  |  | CCS(=O)(=O)NCCOc1ncnc(NS(=O)(=O)c2ccc(C(C)(C)C)cc2)c1Oc1ccccc1OC [Example 31, 4-tert.-butyl-N-{6-[2-(ethanesulfonylamino)-ethoxy]-5-(o-methoxy-phenoxy)-pydmidin-4-yl}-benzenesulfonamide] |
| 0.233 | 0.542 |  |  | CCS(=O)(=O)NCCOc1nc(-c2ccncc2)nc(NS(=O)(=O)c2ccc(C(C)C)cn2)c1Oc1ccccc1OC [Example 73] |
| 0.531 | 0.934 |  |  | COc1ccccc1Oc1c(NS(=O)(=O)c2ccc(C(C)C)cn2)nc(-c2ccncc2)nc1OCCNS(=O)(=O)C(F)(F)F [Example 74] |
|  |  | 0.185 | 5.4 | CCS(=O)(=O)NCCOc1nc(-c2ccncc2)nc(NS(=O)(=O)c2ccc(C)cn2)c1Oc1ccccc1OC [Example 77, 5-methyl-N-[6-(2-(ethanesulfonylamino)-ethoxy)-5-(o-methoxyphenoxy)-2-(4-pyridyl)-4-pyrimidinyl]-2-pyridine sulfonamide] |
| 0.075 | 0.376 |  |  | CCS(=O)(=O)NCCOc1nc(C2CC2)nc(NS(=O)(=O)c2ccc(C(C)C)cn2)c1Oc1ccccc1OC [Example 43, 5-i-propyl-N-[6-(2-ethanesulfonylamino-ethoxy)-5-(o-methoxyphenoxy)-2-cyclopropyl-pyrimidin-4-yl]-pyridine-2-sulfonamide] |
| 0.104 | 1.24 |  |  | CCS(=O)(=O)NCCOc1nc(N2CCOCC2)nc(NS(=O)(=O)c2ccc(C(C)(C)C)cc2)c1Oc1ccccc1OC [Example 81, 4-tert.-butyl-N-[6-(2-ethanesulfonylamino-ethoxy)-2-(N-morpholino)-5-(o-methoxyphenoxy)-pyrimidin-4-yl]-benzenesulfonamide] |
|  | 0.0186 | 0.0773 |  | COc1ccccc1Oc1c(NS(=O)(=O)c2ccc(C(C)C)cn2)nc(C2CC2)nc1OCCCNS(=O)(=O)c1ccc(C)cc1 [Example 94, 5-i.-propyl-N-[6-(3-(p-toluenesulfonylamino)-propoxy)-5-(o-methoxyphenoxy)-2-cyclopropyl-4-pyrimidinyl]-pyridine-2-sulfonamide] |
